Tests used:
[1] = Human pharmacokinetic study, urine (DART TOF-MS); type: in vivo
Experimental: (§1) Cranberry extracts 5 and 6 were prepared by HerbalScience Singapore Pte. Ltd. and prepared as 150-mg and 140-mg capsules, respectively. Each pharmacokinetic study (1 per extract) consisted of five healthy consenting adults ranging in age from 25 to 50 were instructed not to consume foods rich in phenolics 24 hours prior to the initiation of the study. A certified individual collected urine samples at several time intervals between 0 and 480 minutes after two capsules of a cranberry extract were ingested immediately after the time zero time point. Blood samples were handled with approved protocols and precautions, centrifuged to remove cells and the serum fraction was collected and frozen. Blood was not treated with heparin to avoid any analytical interference. Serum samples were stored frozen at −20° C. until analysis. The serum was extracted with an equal volume of neat ethanol (USP) to minimize background of proteins, peptides, and polysaccharides present in serum. The ethanol extract was centrifuged at 9300×g for 10 minutes at 4° C., the supernatant was removed, concentrated to 200 μL volume which was then used for DART TOF-MS analyses (FIG. 10). Urine samples were handled with approved protocols and precautions and frozen. Serum samples were stored frozen until analysis. The urine samples were analyzed neat by DART TOF-MS (FIGS. 11 and 12).

[2] = Human pharmacokinetic study, serum (DART TOF-MS); type: in vivo; settings: 5 healthy adults, Extract 5 300 mg oral
Experimental: as §1

| time of appearance in urine ([1]; human, in vivo, po) [h] | time through which urine levels increased (declined thereafter) ([1]; human, in vivo, po) [h] | presence in urine at 8 hours post-ingestion ([1]; in vivo, po) | time of appearance in urine ([1]; in vivo, po) [h] | time through which urine levels increased (declined thereafter) ([1]; in vivo, po) [h] | Molecule | other results |
| --- | --- | --- | --- | --- | --- | --- |
| ≤ 1 | 2 | still present | – | – | O=C(O)c1ccc(O)cc1 [4-hydroxybenzoic acid] | – |
| ≤ 1 | 2 | – | – | – | C[C@@H](O)[C@H](N)C(=O)O [L-threonine] | – |
| – | – | – | – | – | CC1=CC(=O)CC(C)(C)[C@@]1(O)/C=C/C(C)=C\C(=O)O [abscisic acid] | time after which undetectable in serum [2]: 180 min; time through which serum levels increased (declined thereafter) [2]: about 40 minutes; abundance in urine relative to other bioactives ([1]; Extract 5 300 mg oral): most abundant; time of peak level in urine ([1]; Extract 5 300 mg oral): 2 h; presence in urine at 8 hours post-ingestion ([1]; two vegcaps Extract 6 oral): still present; time through which urine levels increased (declined thereafter) ([1]; two vegcaps Extract 6 oral): 2 h |
| – | – | – | ≤ 1 | 2 | NCC(=O)CCC(=O)O [aminolevulenic acid] | – |
| – | – | still present | ≤ 1 | 2 | COc1ccc(C2COc3cc(O)ccc3C2)c(O)c1 (stereo not shown) [vestitol] | – |
| – | – | still present | ≤ 1 | 2 | c1ccc(-c2cc3ccccc3[nH]2)cc1 [α-phenylindol] | – |
| – | – | – | – | – | S-petasine | time after which undetectable in serum [2]: 180 min; time through which serum levels increased (declined thereafter) [2]: about 40 minutes; time through which urine levels increased (declined thereafter) ([1]; two vegcaps Extract 6 oral): 2 h |
| – | – | still present | ≤ 1 | 2 | chitosan | – |

| Molecule | time of appearance in urine ([1]; human, in vivo, po) [h] | time through which urine levels increased (declined thereafter) ([1]; human, in vivo, po) [h] | presence in urine at 8 hours post-ingestion ([1]; in vivo, po) | time of appearance in urine ([1]; in vivo, po) [h] | time through which urine levels increased (declined thereafter) ([1]; in vivo, po) [h] | other results |
| --- | --- | --- | --- | --- | --- | --- |
| O=CC=Cc1ccccc1 [cinnamaldehyde] | ≤ 1 | 2 | still present | – | – | – |
